The nature of test [1]: anti-odor test, panel by sniffing: N-acetyl-L-cysteine dissolved in a single solvent or liquid ingredient (anhydrous composition). Particulars: 10% N-acetyl-L-cysteine and 90% solvent or liquid ingredient. The protocol: An anti-odor test was carried out in an anhydrous solvent according to the following example. In a series of test tubes, 4.5 ml of a solvent was added to a test tube such that each test tube comprised a single solvent. The solvents added to the test tubes included water, ethanol, acetone, n-propanol, isopropyl alcohol, propylene glycol, butylenes glycol, benzyl alcohol, ethoxydiglycol, 2-ethyl-1,3-hexanediol. N-Acetyl-L-cysteine (MW 163) 0.5 g was then added and dissolved in each solvent. The test tubes were warmed slightly to enhance dissolution of N-acetyl-L-cysteine crystals. Each test tube contained 10% N-acetyl-L-cysteine and 90% solvent.
An anti-odor test was carried out in an anhydrous composition according to the following example. In a series of test tubes, 4.5 ml of a liquid ingredient was added to a test tube such that each test tube comprised a single liquid ingredient. The liquid ingredients added to a test tube included ethyl glycolate, ethyl-L-lactate, diethyl tartrate, triethyl citrate, tripropyl citrate, ethyl-DL-mandelate, benzyl N-acetyl-prolinate, ethyl N-acetyl-prolinate, propyl N-acetyl-prolinate. N-Acetyl-L-cysteine (MW 163) 0.5 g was then added and dissolved in each liquid ingredient. The test tubes were warmed slightly to enhance dissolution of N-acetyl-L-cysteine crystals. Each test tube contained 10% N-acetyl-L-cysteine and 90% liquid ingredient. The panel judged the anti-odor effect in each test tube.

Test [2] can be described thus: anti-odor test, three-member panel by sniffing: sulfone or organic amine in composition containing water or alcohol (solution, oil-in-water emulsion). The protocol:
(§1) Initially, a malodor compound such as about 5% by weight was prepared in water solution or in oil-in-water emulsion. A sulfone or organic amine of the present embodiments was added at various concentrations for example, ranging from about 2%, 1%, 0.5% and 0.1% to the formulations containing the malodor substance. The composition containing the malodor substance without a sulfone or organic amine was used as the control.
Methenamine (MW 140) 7.0 g was dissolved in water, and the total volume was 100 ml. This solution contained methenamine 0.5M or 70 mg per ml methenamine.
Piperazine (MW 86) 4.3 g was dissolved in water, and the total volume was 100 ml. This solution contained piperazine 0.5M, or 43 mg per ml piperazine.

Test [3] in a line: panel sniff tests of solvents, ingredients and amines against thiol malodor (general statements). The settings on record: solvent or ingredient, based on the panel tests. The protocol: as §1
Where [4] appears, read: 10% N-acetyl-L-cysteine and 5% anti-odor ingredient in water.
The mark [5] stands for this setting: water, 4% N-acetyl-L-cysteine and 1% organic amine (cytidine solution pH 4.3).
The mark [6] stands for this setting: water, N-acetyl-L-cysteine 0.25 M and chlorhexidine 0.1 M.
[7] abbreviates: water, N-acetyl-L-cysteine 4% and piperazine 0.43%, pH 3.4.
The mark [8] stands for this setting: water, N-acetyl-L-cysteine 4% and piperazine 1.1%, pH 5.6.
The mark [9] stands for this setting: water, N-acetyl-L-cysteine 4% and trizma base 0.61%, pH 3.0.
[10] abbreviates: water, N-acetyl-L-cysteine 4% and trizma base 1.5%, pH 3.5.

Structures can show the parent of a compound that is named as a salt. Where two headings read alike, the source gives them in different places.

With `CCOC(=O)C(O)c1ccccc1` (racemic) [ethyl-DL-mandelate], the anti-odor effect in test [1] was determined as 100%.
As to `O=S(=O)(CCO)CCO` [2,2-sulfonyldiethanol], in test [2], the “malodor as judged by panel” value was “did not have any malodor”.
Regarding `Cc1cc(S(=O)(=O)c2ccc(O)c(C)c2)ccc1O` [4,4′-sulfonyl-bis(2-methylphenol)], the “malodor as judged by panel” value in test [2] (setting [4]) is given as “did not have any malodor”.
The same measure, in the same setting: the entry for `COC(=O)c1ccc(S(=O)(=O)c2ccc(C(=O)OC)cc2)cc1` [4,4′-sulfonyl-bis(methylbenzoate)] is “did not have any malodor”.
For the compound `O=S(=O)(c1ccc(O)cc1)c1ccc(O)cc1` [4,4′-sulfonyldiphenol], the “malodor as judged by panel” value in test [2] is recorded as “did not have any malodor”.
With `CC(=O)N[C@@H](CS)C(=O)O` [N-Acetyl-L-cysteine, reference compound], the “malodor as judged by panel” value in test [2] (cream (oil-in-water emulsion), 10% N-acetyl-L-cysteine, no anti-odor ingredient (control)) is “very unpleasant malodor”.
As to `CCCCO` [N-butyl alcohol], the “prevention of malodor produced by a thiol or similar malodor compounds” value (“prevention of malodor produced” for short) in test [3] is “effectively prevent malodor”.
As for `CC(C)=O` [acetone], the anti-odor effect in test [1] is 100%.
Turning to `Nc1ncnc2nc[nH]c12` [adenine], in test [2] (setting [5]), the “effective in preventing malodor” value came to 50% and the “malodor as judged by panel” value was “slight malodor ((b) slight malodor (50% effective))”.
In the case of `CCCCOCCOCCO` [butoxydiglycol], the “prevention of malodor produced” value in test [3] is “effectively prevent malodor”.
`CCCCOCC(C)O` (stereo not shown) [butoxypropanol]: the “prevention of malodor produced” value in test [3] is reported as “effectively prevent malodor”.
For `CCCCOC(C)=O` [butyl acetate], in test [3], the “prevention of malodor produced” value is “effectively prevent malodor”.
Turning to `CCCCOC(=O)C(C)O` (stereo not shown) [butyl lactate], the “prevention of malodor produced” value in test [3] is “effectively prevent malodor”.
On the same count and under the same terms, the value for `CCCCCCC(CO)CCCC` (stereo not shown) [butyloctanol] was “effectively prevent malodor”.
In the case of `[H]/N=C(\N/C(=N/[H])NCCCCCCNC(=N)NC(=N)Nc1ccc(Cl)cc1)Nc1ccc(Cl)cc1` [chlorhexidine base, chlorhexidine, reference compound], in test [2] (setting [6]), the “effective in preventing odor” value is recorded as 50% and the “malodor as judged by panel” value was “slight malodor ((b) slight malodor (50% effective))”.
For `C1CCCCC1` [cyclohexane], the “prevention of malodor produced” value in test [3] was “effectively prevent malodor”.
As to `Nc1cc[nH]c(=O)n1` [cytosine], in test [2] (setting [5]), the “effective in preventing malodor” value was 50% and the “malodor as judged by panel” value is “slight malodor ((b) slight malodor (50% effective))”.
As for `CCCCOC(=O)CCCCC(=O)OCCCC` [dibutyl adipate], the “prevention of malodor produced” value in test [3] was “effectively prevent malodor”.
Still for that read-out and setting: the value for `CC(C)COC(=O)CCCCC(=O)OCC(C)C` [diisobutyl adipate] was “effectively prevent malodor”; that for `CC(C)OC(=O)CCCCC(=O)OC(C)C` [diisopropyl adipate] was “effectively prevent malodor”; that for `CC(C)OC(=O)C(=O)OC(C)C` [diisopropyl oxalate] was “effectively prevent malodor”.
The same measure, in the same setting: the value for `CC(C)OC(=O)CCCCCCCCC(=O)OC(C)C` [diisopropyl sebacate] was “effectively prevent malodor”; that for `COCCOCCOC` [dimethoxydiglycol] was “effectively prevent malodor”.
The same measure, in the same setting: the value for `COC(=O)CCCCC(=O)OC` [dimethyl adipate] was “effectively prevent malodor”.
For the compound `CS(C)(=O)=O` [dimethyl sulfone], the “malodor as judged by panel” value in test [2] (setting [4]) is on record as “did not have any malodor”; in test [2] (10% N-acetyl-L-cysteine and 10% dimethyl sulfone in ethanol) it was “very strong malodor”; in test [2] (10% N-acetyl-L-cysteine and 10% sulfone in water) it was “did not have any malodor”. Moreover, the “prevention of malodor produced” value in test [3] was “effectively prevent malodor”.
Consider `CCCCCCCCOC(=O)CCCCC(=O)OCCCCCCCC` [dioctyl adipate], for which the “prevention of malodor produced” value in test [3] is “effectively prevent malodor”.
Regarding `CCCCCCCCOC(=O)CCCCCCCCC(=O)OCCCCCCCC` [dioctyl sebacate], in test [3], the “prevention of malodor produced” value is given as “effectively prevent malodor”.
On to `O=S(=O)(c1ccccc1)c1ccccc1` [diphenylsulfone], for which the “malodor as judged by panel” value in test [2] (setting [4]) is given as “did not have any malodor”.
For `CCCOC(=O)CCCCC(=O)OCCC` [dipropyl adipate], in test [3], the “prevention of malodor produced” value is “effectively prevent malodor”.
The same measure, in the same setting: the entry for `CCOCCO` [ethoxyethanol] is “effectively prevent malodor”.
Consider `CCOC(=O)CC(C)=O` [ethyl acetoacetate], for which the “malodor as judged by panel” value in test [2] (setting [4]) is reported as “did not have any malodor”. Further, the “prevention of malodor produced” value in test [3] is reported as “effectively prevent malodor”.
With `CCOC(=O)C(C)O` (stereo not shown) [ethyl lactate], the “prevention of malodor produced” value in test [3] is recorded as “effectively prevent malodor”.
For the compound `Nc1nc2nc[nH]c2c(=O)[nH]1` [guanine], in test [2] (setting [5]), the “effective in preventing malodor” value was determined as 50% and the “malodor as judged by panel” value is “slight malodor ((b) slight malodor (50% effective))”.
In the case of `Nc1nc2c(ncn2[C@@H]2O[C@H](CO)[C@@H](O)[C@H]2O)c(=O)[nH]1` [guanosine], in test [2] (setting [5]), the “effective in preventing malodor” value is given as 50% and the “malodor as judged by panel” value is on record as “slight malodor ((b) slight malodor (50% effective))”.
With `CC(C)CC(C)(C)C` [isooctane], in test [3], the “prevention of malodor produced” value is on record as “effectively prevent malodor”.
Turning to `CC(=O)N1CCC[C@H]1C(=O)OC(C)C` [isopropyl N-acetyl-prolinate], the “prevention of malodor produced” value in test [3] is “effectively prevent malodor”.
As to `CC(=O)OC(C)C` [isopropyl acetate], the “prevention of malodor produced” value in test [3] is on record as “effectively prevent malodor”.
Same read-out and setting: the value for `CCCCCCCCCCCCCC(=O)OC(C)C` [isopropyl myristate] was “effectively prevent malodor”.
Turning to `C1N2CN3CN1CN(C2)C3` [methenamine, reference compound], the “concentration that can completely eliminate the malodor” value in test [2] (N-acetyl-L-cysteine 2% in oil-in-water emulsion) is at least 0.1%. Further, the “malodor as judged by panel” value in test [2] (cream (oil-in-water emulsion), 10% N-acetyl-L-cysteine and 3% methenamine) is recorded as “did not have any malodor”; in test [2] (water, N-acetyl-L-cysteine 4% and methenamine 0.7%, pH 3.9) it was “did not have any malodor”; in test [2] (water, N-acetyl-L-cysteine 4% and methenamine 1.8%, pH 5.2), “did not have any malodor”.
Consider `CCCCCCCCCCCCCCCCCC` [octadecane], for which the “prevention of malodor produced” value in test [3] is “effectively prevent malodor”.
Same read-out and setting: the entry for `CCCCCCCCO` [octanol] is “effectively prevent malodor”; for `CCCCCCCCOC(=O)c1ccccc1` [octyl benzoate] it is “effectively prevent malodor”.
Still for that read-out and setting: the value for `CCCCCCCC/C=C\CCCCCCCCO` [oleyl alcohol] was “effectively prevent malodor”; that for `CCCCCCCC/C=C\CCCCCCCCOC(=O)C(C)O` (stereo not shown) [oleyl lactate] was “effectively prevent malodor”.
As to `C1CNCCN1` [piperazine, reference compound], in test [2] (setting [7]), the “effective in preventing odor” value was found to be 50% and the “malodor as judged by panel” value is “slight malodor ((b) slight malodor (50% effective))”. In addition, in test [2] (setting [8]), the “effective in preventing odor” value came out at 50% and the “malodor as judged by panel” value is “slight malodor ((b) slight malodor (50% effective))”.
For the compound `CC(C)OC(=O)CC(O)(CC(=O)OC(C)C)C(=O)OC(C)C` [triisopropyl citrate], in test [3], the “prevention of malodor produced” value is “effectively prevent malodor”.
With cycloethoxymethicone, the “prevention of malodor produced” value in test [3] was “effectively prevent malodor”.
The same measure, in the same setting: the entry for cyclomethicone is “effectively prevent malodor”.
As to “tris(hydroxymethyl)aminomethane [trizma base]”, the “effective in preventing odor” value in test [2] (setting [9]) and in test [2] (setting [10]) was 50% in each case. Further, the “malodor as judged by panel” value in test [2] (setting [9]) and in test [2] (setting [10]) was “slight malodor ((b) slight malodor (50% effective))” in each case.

(Values after patent US20060251597A1, “ANTI-ODOR COMPOSITIONS AND THERAPEUTIC USE” (priority 2005, published 2006).)
